# Laboratory results reported in patent US10328075B2, “Method of treatment and compounds for use therein” (Baker Heart and Diabetes Institute, priority 2015, dated 2019).
# No end group written: not given here.
# How the values were obtained:
# Type in all cases: in vivo, mouse
# [1] = tested on: myocardial I-R injury in C57BL/6 mice; assay: Myocardial I-R in mice: cardiac necrosis after 24 h reperfusion (infarct size, plasma cTnI); details: for Cardioprotection: Infarct size: Table 9; for Cardioprotection: isolated cardio-myocytes in vitro & intact heart subjected to MI in vivo; for Reduction of infarct size / Effect on plasma cTnI levels: small molecules 50 mg/kg i.p., Ac2-26 1 mg/kg i.v.
# Description: (§1) Male C57BL/6 mice were breed and housed in the AMREP Animal Centre and maintained under a 12 h light/dark cycle. After anaesthesia (i.p., ketamine 80 mg/kg, xylazine 20 mg/kg and atropine 1.2 mg/kg), mice were randomly assigned to 24 h, 48 h and 7 days reperfusion groups and underwent reversible left arterial descending (LAD) ligation as described (Gao XM, 2011; JMCC, 50; Gao XM, 2000, JMCC). Following sedation, mice were intubated and ventilated (Harvard apparatus, MA, USA) with room air mixed with oxygen (tidal volume 0.25 mL, 150 breath/min), and placed on a heating pad. A left thoractomy will be made via the ˜third intercostal space, where the beating heart was located.
# (§2) The LAD was reversibly ligated using 7-0 silk suture with a slipknot enclosing two releasing rings. Regional ischaemia was confirmed by pale colour of the ligated area. Air was then evacuated from the chest, the cavity was closed and normal respiration was restored. After 40-60 min of ischaemia, blood flow through the left coronary artery was re-established by releasing the slipknot. Sham-operated mice underwent identical surgical procedures except the coronary arteries were not ligated. Three cohorts of mice were scheduled. Cohort 1 was subjected to 40 min ischaemic-24 h reperfusion for the assessment of cardiac necrosis. Cohort 2 was subjected to 60 min occlusion with 48 h reperfusion for the quantification of cardiac and systemic inflammation. The last cohort was subjected to 7 d reperfusion and early cardiac fibrosis was assessed.
# (§3) Treatment with study drugs: Animals were randomly assigned to different groups and all treatments were administrated 5 min prior to reperfusion of the LAD. The peptide Ac2-26 (1 mg kg^−1) (Chemieliva, Chongqing, China) and its vehicle (10% dimethyl sulfoxide (DMSO) in saline) were intravenously (i.v.) injected via the tail vein. […] Mice then received drug or vehicle injections daily until the experimental endpoint. The two different vehicles groups reflect different study drug solubility and administration routes.
# Assessment of cardiac necrosis: The optimal time point for assessment of cardiac necrosis is 24 h reperfusion after an ischaemic insult. Plasma levels of cTnI were determined using a commercially available, high-sensitivity rat cTnI ELISA kit (Life Diagnostic Inc., Pennsylvania, USA) as per the manufacturer's instructions. To evaluate the size of the infarction in relation to the area-at-risk (AAR), infarct size (IS) and LV size, 2,3,5-triphenyltetrazolium chloride (TTC) staining was performed. The LAD was tightly re-occluded in anaesthetised mice after 24 h of reperfusion and Evans blue dye (0.1 mL, 5%) was injected as a bolus into the LV. The heart was then excised and rinsed in cold saline to remove excess dye. The LV was isolated, frozen at −20° C. and then cut transversely into six to seven slices at 1.0 mm thickness. LV slices were incubated for 45 min with 1.5% TTC solution at 37° C. The presence of Evans blue indicated perfusion, whereas its absence indicated lack of perfusion to that region, whereas the brick red areas indicate viable myocardium, white or yellowish regions demarcate necrotic tissue. The slices were mounted between glass slides, and images were acquired digitally using […] microscope (Leica Wild M3B, Heerbrugg, Switzerland) coupled with digital camera (Nikon Cool-PIX4500, Tokyo, Japan). The images were analyzed using Image J analysis program (Version 1.45S, National Institute of Health, USA). The non-ischaemic zone (blue area), area-at-risk zone (AAR, red and white or yellow areas), infarct zone (white or yellow areas) and total LV were outlined and quantified blindly. Infarct size was calculated as percentage of infarct zone/risk zone.
# Animal Surgery: Adult C57BL/6 mice were randomly assigned to myocardial ischemia-reperfusion (I-R) injury or sham in vivo. […]
# [2] = Plasma levels and pharmacokinetics in mice; details: for Tmax / half-life: mouse, in vivo, Table 9, mice
# [3] = tested on: myocardial I-R injury in C57BL/6 mice; assay: Myocardial I-R in mice: systemic inflammation after 48 h reperfusion
# Description: as §1, §2, §3
# Assessment of systemic inflammation: Blood samples collected from mice subjected to 60 min ischaemia and 48 h reperfusion were diluted 1:20 into 2% acetic acid to lyse the red blood cells for total WBC counting, using a haemocytometer. Blood smears were stained using a hemacolor staining kit (Merck millipore, Melbourne, Australia) and then examined under 60× magnification using an Olympus Biological CHS microscope (Olympus Inc., Tokyo, Japan) for manual counting of neutrophils, lymphocytes and monocytes per 100 WBCs.
# Animal Surgery: Adult C57BL/6 mice were randomly assigned to myocardial ischemia-reperfusion (I-R) injury or sham in vivo. Anesthetized mice (ketamine 80 mg/kg, xylazine 20 mg/kg and atropine 1.2 mg/kg, KXA, i.p.) underwent reversible left arterial descending (LAD) ligation as described (Gao et al. 2000 & Gao et al. 2011). Following sedation, mice were intubated and ventilated (Harvard apparatus, MA, USA) with room air mixed with oxygen (tidal volume 0.25 mL, 150 breaths/min), and placed on a heating pad. A left thoractomy was be made around the third intercostal space, where the beating heart was located. The LAD was reversibly ligated using 7-0 silk suture with a slipknot enclosing two releasing rings. Regional ischemia was confirmed by pale color of the ligated area. Air was then evacuated from the chest, the cavity closed and normal respiration restored. Blood flow through the left coronary artery was subsequently re-established at the end of the ischemic period (i.e. reperfusion) by releasing the slipknot. Three distinct cohorts of mice were studied. Cohorts 1 and 2 were subjected to 40 mins ischemia with either 24 h or 7 days reperfusion, optimal timepoints for the assessment of cardiac necrosis and early cardiac remodeling in vivo, respectively. Cohort 3 was subjected to 60 mins LAD occlusion with 48 h reperfusion, for the quantification of cardiac and systemic inflammation. […]
# [4] = mice, 40 min ischaemia, 24 h reperfusion
# [5] = 48 h reperfusion, listed as Cmpd17b
Molecule,Cardioprotection: Infarct size ([1]; mice),Cardioprotection [1],Tmax [2],half-life [2],"Effect on cardiac necrosis (cardioprotective action) 24 h post I-R ([1]; mice, 50 mg/kg i.p.)","Reduction of infarct size [1, 4]","Reduction of infarct size ([1]; mice, 40 min ischaemia, 24 h reperfusion, listed as Cmpd17b)","Effect on plasma cTnI levels ([1]; mice, 24 h reperfusion)",Effect on circulating IL-1β ([3]; 48 h reperfusion),Effect on circulating lymphocytes ([3]; 48 h reperfusion),Effect on circulating monocytes ([3]; 48 h reperfusion),Effect on circulating neutrophils ([3]; 48 h reperfusion),Effect on total circulating WBC ([3]; 48 h reperfusion),"Effect on circulating lymphocytes [3, 5]","Effect on total circulating WBC [3, 5]","Effect on infarct size (in words) ([1]; mice, 40 min ischaemia, 24 h reperfusion, 50 mg/kg i.p.)",Effect on systemic inflammation / early inflammatory response 48 h post I-R ([3]; 50 mg/kg i.p.),"Plasma level approximately 20 h after the final dose (in words) ([2]; mice subjected to 7 days reperfusion, 50 mg/kg/day i.p.)"
Cc1cc(Cc2cccnc2)c(=O)n(CC(=O)Nc2ccc(Cl)cc2)n1 [MIPS-0010396],↓↓,confers cardioprotection,1 h,11.7 h,–,–,–,–,–,–,–,–,–,–,–,–,–,–
"COc1cccc(Cc2cc(C)nn(C(C)C(=O)Nc3ccc(Br)cc3)c2=O)c1 (stereo not shown) [BIDI-001, N-(4-bromophenyl)-2-[5-(3-methoxybenzyl)-3-methyl-6-oxo-6H-pyridazin-1-yl]-propionamide]",↓↓,conferred cardioprotection,0.5 h,7.6 h,reduces cardiac necrosis,~34%,~35%,significantly reduced,significantly blunted,tended to reduce,without affecting,absent,tended to reduce,significantly blunted,absent,–,–,–
CC(C)C1C(NC(=O)Nc2ccc(Cl)cc2)C(=O)N(c2ccccc2)N1C (stereo not shown) [BIDI-002],–,–,2 h,3.8 h,lacked cardioprotective actions,–,–,not seen,–,significantly increased,significantly increased,–,–,–,–,not,not,micromolar range
"Ac2-26: Annexin-A1 N-terminal peptide, peptide ANX-A1 mimetic (Ac-AMVSEFLKQAWFIENEEQEYVQTVK; UniProt P04083 2-26, looked up, fragment)",–,–,–,–,–,~25%,–,non-significant trend,–,–,–,–,did not significantly alter,–,–,–,–,–
